In patent US20260097049A1, “C[…] AND METHODS OF USE FOR TREATMENT AND PREVENTION OF CANCER” (BlackStone Therapeutics, LLC, priority 2022, published 2026):
Several values for one entry are separate records, joined by “and”; a condition that tells them apart may be missing. Equal entries are not always repeated. Where two headings read alike, the source gives them in different places.

Columns and labels:
PANC-1 = assay: CellTiterGlo cell viability, PANC-1 cells; assay type: cell-based; conditions: Homo sapiens, 72 h
Description: The IC50 values for (R)-H4CBD, (S)-H4CBD, H4CBDV racemic mixture, and bortezomib were determined. Compound treatment of cells started one day after seeding with a final DMSO concentration of 0.1% and was performed by nanodrop-dispensing using a Tecan Dispenser. 0.1% DMSO (solvent) and Staurosporine (1,0E-05M) served as high control (100% viability) and low control (0% viability), respectively. For the assays, cells were seeded in white cell culture-treated flat and clear bottom multiwell plates and incubated at 37° C. overnight before compounds were added. After incubation for 72 h at 37° C. at 5% or 10% CO2 dependent on the medium, cell plates were equilibrated to room temperature for one hour, CellTiterGlo reagent (Promega) was added and luminescence was measured approximately an hour later using a luminometer.
Raw data were converted into percent cell viability relative to the high and low control, which were set to 100% and 0%, respectively. IC50 calculation was performed using GraphPad Prism software with a variable slope sigmoidal response fitting model using 0% viability as bottom constraint and 100% viability as top constraint. IC50 results in PANC-1, MIA-PaCa2, and AsPC-1 cells for (R)-H4CBD, (S)-H4CBD, H4CBDV racemic mixture, and bortezomib are shown in FIGS. 10-12 and Table 2

[1] = test system: PANC-1, HPAF-II, AsPC-1, and MIA-PaCa2; assay: Cell killing against various cancer cell lines; assay type: cell-based; conditions: all cancer cells tested
Description: Various compounds, including (R)-H4CBD and (S)-H4CBD, and H4CBDV racemic mixture, were tested for cell killing against various cancer cell lines, including PANC-1, HPAF-II, AsPC-1, and MIA-PaCa2.

[2] = Pharmacokinetics in CD1 male mice (plasma, HPLC-MS); assay type: in vivo; conditions: for MRT inf: read-out: MRTInf—obs; for Vd: read-out: Vss—obs
Description: Formulation and dosing information for pharmacokinetic data is provided in Table 5 (CD=beta-cyclodextrin). The solutions were sonicated, vortexed, and slightly heated resulting in a clear purple liquid.
Pharmacokinetic data was produced by administering CD1 male mice with CCL-104 (H4CBD) or CCL-106 (H4CBDV). Each compound was formulated and administered as shown in Example 3. Plasma was sampled from the IV administered mice at 5 min, 15 min, 30 min, 1 hr, 2 hr, 4 hr post dose. Plasma was sampled from the PO administered mice at 15 min, 30 min, 1 hr, 2 hr, 4 hr, 6 hr post dose. The desired serial concentrations of working solutions were achieved by diluting stock solution of analyte with 50% acetonitrile in water solution. 10 μL of working solutions (0.5, 1, 2, 5, 10, 50, 100, 500, 1000 ng/mL) were added to 10 μL of the blank male CD1 mice plasma to achieve calibration standards of 0.5-1000 ng/mL (0.5, 1, 2, 5, 10, 50, 100, 500, 1000 ng/mL) in a total volume of 20 μL. Six quality control samples at 1 ng/mL, 2 ng/mL, 5 ng/mL, 10 ng/mL, 50 ng/mL and 800 ng/mL for plasma were prepared independently of those used for the calibration curves. These QC samples were prepared on the day of analysis in the same way as calibration standards. 20 μL standards, 20 μL QC samples and 20 μL unknown samples (10 μL plasma with 10 μL blank solution) were added to 200 μL of methanol containing IS mixture for precipitating protein respectively. Then the samples were vortexed for 30 seconds, then centrifuged at 4° C., 4,000 rpm for 15 min. The supernatant was diluted with water at a ratio of 1:2. 15 μL of the diluted supernatant was injected into the LC/MS/MS system for quantitative analysis.

MiaPaca cells xenograft = assay: Miapaca cell xenograft study; assay type: in vivo, SCID mice
Description: Animal housing and environment: Female SCID mice will be housed in individually ventilated cages in a controlled environment (temperature 22±2° C., humidity 30-70%, and 12 h light/12 h dark cycle). Acclimatization of animals: Mice will be acclimated for 2-4 days. For the study, the required number of SCID mice will be allocated and housed separately in the experimental area. Food and water for animals: The mice will have access to commercially available sterile feed pellets and sterile potable water ad libitum. Identification of animals: 4 mice will be housed per individually ventilated cage. Each animal in the cage will be identified by ear punch. These cages will be numbered thus making the animal identification easy. Ethical approvals: All animal experiments will be carried out in accordance with the guidelines of the guide for animal welfare and with the approval of the IACUC WSU. Population per group: 9 mice per group (6 for efficacy and 3 for residual tumor analysis).
Miapaca cells were xenograft into the mice. 7 days after transplantation, the mice were untreated (administered a vehicle control), administered CCL-104 intravenously (15.4 mg/kg) or orally (31 mg/kg), or administered CCL-106, intravenously (20 mg/kg) or orally (31 mg/kg). At necropsy, tumors were excised for IHC, immunoblotting and RNA isolation for suppression proliferation related signaling molecules.

[3] = IV 10 mg/kg, individual mouse, 10 mg/kg
[4] = PO 10 mg/kg, individual mouse, 10 mg/kg
[5] = male, CD1, mouse, plasma, iv, 10 mg/kg, IV 10 mg/kg, Mean of 4 mice
[6] = male, CD1, mouse, plasma, iv, 10 mg/kg, IV 10 mg/kg, individual mouse
[7] = male, CD1, mouse, plasma, po, 10 mg/kg, PO 10 mg/kg, Mean of 4 mice
[8] = male, CD1, mouse, plasma, po, 10 mg/kg, PO 10 mg/kg, individual mouse

CCCc1cc(O)c(C2CC(C)CCC2C(C)C)c(O)c1 (racemic) [CCL-106, hexahydrocannabidivarin]
IC50 (PANC-1): 789 nM
cytotoxicity against cancer cells [1]: shows cytotoxicity against all cancer cells tested
AUClast/D (h*mg/mL) ([2]; IV 10 mg/kg, Mean of 4 mice): 184 h*ng/mL per mg/kg
AUC—% Extrap—obs ([2]; IV 10 mg/kg, Mean of 4 mice): 18.4%
Cl_obs ([2]; IV 10 mg/kg, Mean of 4 mice): 74.7 mL/min/kg
AUCInf [2, 3]: 2519 ng·h/mL and 2031 ng·h/mL and 2513 ng·h/mL
AUClast [2, 3]: 2047 ng·h/mL and 1630 ng·h/mL and 1952 ng·h/mL
AUC—% Extrap—obs [2, 3]: 12.7% and 18.7% and 19.8% and 22.3%
C0 [2, 3]: 4701 ng/mL and 5792 ng/mL and 5062 ng/mL
Cl_obs [2, 3]: 84.1 mL/min/kg and 66.2 mL/min/kg and 82.1 mL/min/kg and 66.3 mL/min/kg
MRTInf—obs [2, 3]: 2.11 h and 2.16 h and 2.49 h
T1/2 [2, 3]: 2.14 h and 2.50 h and 2.99 h
Vss—obs [2, 3]: 8.38 L/kg and 10.7 L/kg and 9.89 L/kg
AUClast/D (h*mg/mL) ([2]; PO 10 mg/kg, Mean of 4 mice): 31.6 h*ng/mL per mg/kg
AUC—% Extrap—obs ([2]; PO 10 mg/kg, Mean of 4 mice): 25.7%
AUCInf [2, 4]: 404 ng·h/mL and 453 ng·h/mL and 479 ng·h/mL
AUClast [2, 4]: 308 ng·h/mL and 414 ng·h/mL and 226 ng·h/mL
AUC—% Extrap—obs [2, 4]: 18.1% and 23.7% and 8.47% and 52.7%
Cmax [2, 4]: 233 ng/mL and 177 ng/mL and 352 ng/mL and 127 ng/mL
F (%) [2, 4]: 16.7% and 20.0% and 12.3%
MRTInf—obs [2, 4]: 3.27 h and 4.01 h and 2.21 h and 10.3 h
T1/2 [2, 4]: 3.20 h and 3.31 h and 2.04 h and 8.02 h
AUC(0-inf) [2, 5]: 2260 ng·h/mL
AUC(0-t) [2, 5]: 1840 ng·h/mL
half-life [2, 5]: 2.32 h
C0 ([2]; male, CD1, mouse, plasma, iv, 10 mg/kg, IV 10 mg/kg, Mean of 4 mice, read-out: C0): 4820 ng/mL
MRT inf [2, 5]: 2.1 h
Vd [2, 5]: 9.3 L/kg
AUC(0-inf) [2, 6]: 1980 ng·h/mL
AUC(0-t) [2, 6]: 1730 ng·h/mL
half-life [2, 6]: 1.63 h
C0 ([2]; male, CD1, mouse, plasma, iv, 10 mg/kg, IV 10 mg/kg, individual mouse, read-out: C0): 3720 ng/mL
MRT inf [2, 6]: 1.62 h
Vd [2, 6]: 8.18 L/kg
AUC(0-inf) [2, 7]: 429 ng·h/mL
AUC(0-t) [2, 7]: 316 ng·h/mL
Tmax [2, 7]: 0.25 h
bioavailability [2, 7]: 16.5%
half-life [2, 7]: 4.14 h
Cmax ([2]; male, CD1, mouse, plasma, po, 10 mg/kg, PO 10 mg/kg, Mean of 4 mice, read-out: Cmax): 222 ng/mL
MRT inf [2, 7]: 4.9 h
AUC(0-inf) [2, 8]: 383 ng·h/mL
AUC(0-t) [2, 8]: 314 ng·h/mL
Tmax [2, 8]: 0.25 h
bioavailability [2, 8]: 16.9%
reduction of final tumor weight (dot graph) (MiaPaca cells xenograft; IV 20 mg/kg): 27.0%
reduction of mean of the final tumor weight (bar graph) (MiaPaca cells xenograft; IV 20 mg/kg): 24.2%
reduction of final tumor weight (dot graph) (MiaPaca cells xenograft; PO 31 mg/kg): 50.8%
reduction of mean of the final tumor weight (bar graph) (MiaPaca cells xenograft; PO 31 mg/kg): 50.79%
tumor size compared to the untreated control (MiaPaca cells xenograft; treated intravenously or orally, FIGS. 54-55): smaller tumors compared to the untreated control
